Positions count from the first letter of the chain named. Several values for one entry are separate records, joined by “and”; a condition that tells them apart may be missing. Equal entries are not always repeated. Where two headings read alike, the source gives them in different places.

Experimental findings from paper PMC10803289, “Transport and inhibition mechanism of the human SGLT2–MAP17 glucose transporter” (Nature Structural & Molecular Biology, 2023) are described below.

Type in all cases: cell-based
Experiment [1] has as its target T1, WT hSGLT2 (Homo sapiens, UniProt P31639).
T1 construct: expressed in transfected cells; host or cells: HEK293 cells (ECACC 85120602)
T1 sequence (P31639 1-672): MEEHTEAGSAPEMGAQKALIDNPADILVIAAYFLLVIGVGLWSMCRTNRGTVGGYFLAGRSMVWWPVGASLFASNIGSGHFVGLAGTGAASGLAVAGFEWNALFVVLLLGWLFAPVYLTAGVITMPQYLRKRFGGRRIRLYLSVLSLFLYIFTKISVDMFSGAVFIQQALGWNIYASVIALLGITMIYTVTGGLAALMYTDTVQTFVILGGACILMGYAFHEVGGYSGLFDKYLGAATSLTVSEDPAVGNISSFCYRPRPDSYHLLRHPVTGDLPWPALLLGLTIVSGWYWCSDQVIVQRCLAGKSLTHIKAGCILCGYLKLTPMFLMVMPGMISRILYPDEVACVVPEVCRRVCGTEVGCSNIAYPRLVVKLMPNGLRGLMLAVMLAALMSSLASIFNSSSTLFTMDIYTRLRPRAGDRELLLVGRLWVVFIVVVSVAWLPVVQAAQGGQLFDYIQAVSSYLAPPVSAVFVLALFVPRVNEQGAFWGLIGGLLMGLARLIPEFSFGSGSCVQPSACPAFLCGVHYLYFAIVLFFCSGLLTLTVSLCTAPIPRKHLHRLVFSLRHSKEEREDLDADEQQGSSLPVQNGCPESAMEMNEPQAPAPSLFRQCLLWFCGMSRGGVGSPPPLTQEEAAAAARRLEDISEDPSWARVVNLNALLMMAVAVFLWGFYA
T1 sequence (Q13113 1-114 partner): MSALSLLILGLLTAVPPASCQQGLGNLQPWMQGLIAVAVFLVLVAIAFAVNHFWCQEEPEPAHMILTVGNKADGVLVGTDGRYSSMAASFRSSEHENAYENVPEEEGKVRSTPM
Put plainly: α-MG uptake in hSGLT2-transfected HEK293 cells, WT. As for the experimental part: (§1) HEK293 cells (ECACC 85120602) were maintained in Dulbecco’s modified Eagle medium (Gibco) supplemented with 10% fetal bovine serum (Thermo Scientific), 2 mM L-glutamine, 100 U ml^−1 benzylpenicillin and 100 µg ml^−1 streptomycin at 37 °C in a humidified atmosphere (5% CO2 in air). HEK293 cells were seeded at 1.0 × 10^5 cells per well in poly-L-lysine coated 24-well plates. The cells in each well were transiently transfected with 0.25 µg hMAP17 plasmid and 0.50 µg hSGLT2 plasmid using Lipofectamine 2000 (Life Technologies) and cultured for 48 h. […] After preincubation, uptake was initiated by replacing the preincubation buffer with extracellular fluid buffer containing 500 μM α-MG in the absence or presence of inhibitors. Uptake was completed by removing the uptake buffer and washing with ice-cold buffer three times, followed by solubilization in 1 N NaOH at room temperature.
(§2) Cell lysates were deproteinized by adding acetonitrile containing candesartan as the internal standard. The α-MG concentration was quantified via liquid chromatography–tandem mass spectrometry (LC–MS/MS) using the internal standard method.
(§3) Cellular protein content was determined using a bicinchoninic acid protein assay kit (Thermo Fisher Scientific). The uptake of α-MG was expressed as the ratio of concentration in the cells (in pmol per mg protein) to concentration in the medium (in pmol μl^−1); this is known as the cell-to-medium ratio (in μl per mg protein).
(§4) In the inhibition study, the cell-to-medium ratio of cells transfected with the empty vector was used as the background. The specific α-MG uptake was calculated by subtracting this background from the total cell-to-medium ratio and normalized to the uptake achieved without the inhibitor. IC50 was calculated via nonlinear regression using GraphPad Prism 8.4.3.
(§5) The concentrations of the extract solution from the filter plate and of the cell lysate were quantified using a tandem mass spectrometry QTRAP6500 System (SCIEX) coupled with an ACQUITY UPLC system (Waters) using the internal standard method. Mobile phases A and B used 10 mM of ammonium bicarbonate and acetonitrile, respectively.

The target of experiment [2] is T2, hSGLT2 S74A (Homo sapiens, UniProt P31639, S74A).
T2 construct: expressed in transfected cells; host or cells: Expi293 cells, crude membrane fraction
T2 sequence (P31639 whole entry S74A, one chain of several): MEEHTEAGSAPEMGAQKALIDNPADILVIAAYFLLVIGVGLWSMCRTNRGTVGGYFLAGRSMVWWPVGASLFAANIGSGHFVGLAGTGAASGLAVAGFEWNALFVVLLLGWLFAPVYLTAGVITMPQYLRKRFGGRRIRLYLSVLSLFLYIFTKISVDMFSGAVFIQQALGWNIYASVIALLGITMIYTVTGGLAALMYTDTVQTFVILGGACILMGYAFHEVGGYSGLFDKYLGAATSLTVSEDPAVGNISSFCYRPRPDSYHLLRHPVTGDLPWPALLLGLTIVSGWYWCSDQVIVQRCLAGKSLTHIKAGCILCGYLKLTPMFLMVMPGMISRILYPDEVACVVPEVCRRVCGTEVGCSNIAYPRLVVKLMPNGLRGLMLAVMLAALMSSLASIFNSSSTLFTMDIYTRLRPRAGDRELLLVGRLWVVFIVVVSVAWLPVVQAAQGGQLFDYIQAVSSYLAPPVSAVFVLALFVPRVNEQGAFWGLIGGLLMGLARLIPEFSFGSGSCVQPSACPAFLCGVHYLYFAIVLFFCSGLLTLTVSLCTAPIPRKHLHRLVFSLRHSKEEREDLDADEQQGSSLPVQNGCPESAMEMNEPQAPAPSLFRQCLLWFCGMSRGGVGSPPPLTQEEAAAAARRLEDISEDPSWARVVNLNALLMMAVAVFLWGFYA

The target in experiment [3] is T3, hSGLT2 F98A (Homo sapiens, UniProt P31639, F98A).
T3 sequence (P31639 1-672 F98A): T1 sequence (P31639 1-672) with F98A
T3 sequence (Q13113 1-114 partner): T1 sequence (Q13113 1-114 partner)
Put plainly: α-MG uptake in HEK293 cells, F98A mutant. Also noted: expressed in transfected cells.
Description: hSGLT2 complementary DNA and human MAP17 cDNA were synthesized and codon-optimized for expression in human cell lines. Both cDNAs were cloned into the pcDNA3.4 vector. The hSGLT2 sequence was fused with an N-terminal signal sequence from human trypsinogen 1, a His10 tag, and sfGFP, followed by a human rhinovirus 3C protease (HRV3C protease) recognition site. Point mutations were introduced into this construct using site-directed mutagenesis. These plasmids were utilized for all experimental procedures conducted in this study.
as §1, §2, §3, §4, §5

With `O=C(CCc1ccc(O)cc1)c1c(O)cc(O)cc1O[C@@H]1O[C@H](CO)[C@@H](O)[C@H](O)[C@H]1O` [Phlorizin], the remaining activity at 0.0003 µM in experiment [1] (HEK293, Phlorizin 0.3 nM, WT, read-out: α-MG uptake (% of control)) was determined as 103%. For the same compound, in experiment [1] (HEK293, Phlorizin 1 nM, WT, read-out: α-MG uptake (% of control)), the remaining activity at 0.001 µM is 101%. In experiment [1] (HEK293, Phlorizin 10 nM, WT, read-out: α-MG uptake (% of control)), the remaining activity at 0.01 µM amounted to 81.9%. The remaining activity at 0.03 µM in experiment [1] (HEK293, Phlorizin 30 nM, WT, read-out: α-MG uptake (% of control)) turned out to be 53.8%. For the same compound, the remaining activity at 0.1 µM in experiment [1] (HEK293, Phlorizin 100 nM, WT, read-out: α-MG uptake (% of control)) stood at 36.9%. Besides, the remaining activity at 0.3 µM worked out at 18.1% in experiment [1] (HEK293, Phlorizin 300 nM, WT, read-out: α-MG uptake (% of control)) and 80.5% in experiment [3] (HEK293, Phlorizin 300 nM, read-out: α-MG uptake (% of control)). For the same compound, the “α-MG uptake (% of control)” value is 107.5 % of control and 105.5 % of control in experiment [1] (Phlorizin 0.3 nM, WT); 114.0 % of control and 107.4 % of control in experiment [1] (Phlorizin 1 nM, WT); 83.9 % of control and 115.8 % of control and 121.5 % of control in experiment [1] (Phlorizin 3 nM, WT); 71.6 % of control and 84.5 % of control in experiment [1] (Phlorizin 10 nM, WT); 70.4 % of control and 72.9 % of control in experiment [1] (Phlorizin 30 nM, WT); 38.1 % of control and 34.4 % of control in experiment [1] (Phlorizin 100 nM, WT). In addition, the “α-MG uptake (% of control)” value in experiment [1] (Phlorizin 300 nM, WT) is 15.6 % of control and 11.8 % of control; in experiment [2] (Phlorizin 0.3 nM) it was 98.3 % of control and 109.0 % of control and 132.4 % of control; in experiment [2] (Phlorizin 1 nM), 94.4 % of control and 116.6 % of control and 114.8 % of control; in experiment [2] (Phlorizin 3 nM), 99.5 % of control and 109.8 % of control; in experiment [2] (Phlorizin 10 nM), 92.0 % of control and 68.8 % of control; in experiment [2] (Phlorizin 30 nM), 76.5 % of control and 90.7 % of control. For the same compound, the “α-MG uptake (% of control)” value in experiment [2] (Phlorizin 100 nM) was 51.6 % of control and 68.4 % of control; in experiment [2] (Phlorizin 300 nM), 32.7 % of control and 25.1 % of control; in experiment [3] (Phlorizin 0.3 nM), 115.8 % of control and 94.2 % of control and 155.8 % of control; in experiment [3] (Phlorizin 3 nM) it was 76.0 % of control and 88.8 % of control and 126.1 % of control; in experiment [3] (Phlorizin 10 nM) it was 79.6 % of control and 104.3 % of control and 76.0 % of control; in experiment [3] (Phlorizin 30 nM) it was 103.1 % of control and 103.4 % of control and 128.4 % of control. For the same compound, the “α-MG uptake (% of control)” value in experiment [3] (Phlorizin 100 nM) was 135.2 % of control and 89.8 % of control and 99.6 % of control; in experiment [3] (Phlorizin 300 nM), 69.6 % of control and 82.5 % of control.

`CO[C@H]1O[C@H](CO)[C@@H](O)[C@H](O)[C@H]1O` [α-MG, α-methyl-D-glucopyranoside]: the α-MG uptake in experiment [1] (Control (no inhibitor), hSGLT2 cells) was 23.4464 μL/mg-protein and 18.7820 μL/mg-protein and 14.3913 μL/mg-protein and 26.3540 μL/mg-protein; in experiment [1] (Fig. 3h, WT), 101.43 μL/mg-protein and 101.01 μL/mg-protein and 97.56 μL/mg-protein; in experiment [1] (time course, 500 μM α-MG, 15 min, hSGLT2) it was 4.1190 μL/mg-protein and 4.1163 μL/mg-protein and 6.4519 μL/mg-protein; in experiment [1] (time course, 500 μM α-MG, 30 min, hSGLT2) it was 12.1536 μL/mg-protein and 10.6771 μL/mg-protein and 14.5344 μL/mg-protein; in experiment [2] (Fig. 3h) it was 27.75 μL/mg-protein and 30.77 μL/mg-protein and 34.71 μL/mg-protein; in experiment [3] (Fig. 3h), 55.68 μL/mg-protein and 75.98 μL/mg-protein and 85.61 μL/mg-protein.
